In PubChem BioAssay (NCI):
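All cell lines were grown in 96-well plates and treated with compound for 48 hours. GI50: concentration for 50% inhibition of growth. TGI marks complete inhibition of growth.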

Key:
Assay in all cases: NCI anticancer screen, dose series, 48 h
CCRF-CEM leukemia = tested on: CCRF-CEM leukemia
LOX IMVI melanoma = tested on: LOX IMVI melanoma
SF-268 CNS = tested on: SF-268 CNS
T-47D breast = tested on: T-47D breast
RPMI-8226 leukemia = tested on: RPMI-8226 leukemia
KM12 colon = tested on: KM12 colon
IGROV1 ovarian = tested on: IGROV1 ovarian
NCI/ADR-RES ovarian = tested on: NCI/ADR-RES ovarian
MALME-3M melanoma = tested on: MALME-3M melanoma
SNB-19 CNS = tested on: SNB-19 CNS

| SMILES | TGI (CCRF-CEM leukemia) [µM] | TGI (LOX IMVI melanoma) [µM] | TGI (SF-268 CNS) [µM] | TGI (T-47D breast) [µM] | TGI (RPMI-8226 leukemia) [µM] | TGI (KM12 colon) [µM] | TGI (IGROV1 ovarian) [µM] | TGI (NCI/ADR-RES ovarian) [µM] | TGI (MALME-3M melanoma) [µM] | TGI (SNB-19 CNS) [µM] | GI50 (SF-268 CNS) [nM] | GI50 (T-47D breast) [nM] | GI50 (SNB-19 CNS) [nM] | GI50 (KM12 colon) [nM] | GI50 (NCI/ADR-RES ovarian) [nM] |
| --- | --- | --- | --- | --- | --- | --- | --- | --- | --- | --- | --- | --- | --- | --- | --- |
| CC(=O)N=C1N(/C=C2\C(=O)Oc3ccccc3C2=O)C(=O)/C(=C/c2ccc(Cl)cc2Cl)N1C | > 100 | > 100 | > 100 | > 100 | > 100 | > 100 | > 100 | > 100 | > 100 | – | – | – | – | – | – |
| COC(=O)[C@H](Cc1c[nH]c2ccccc12)NC(=O)c1ccc(CNC(=O)/C=C/c2cccc(Oc3ccccc3)c2)cc1 | > 100 | – | > 100 | > 100 | > 100 | > 100 | > 100 | > 100 | > 100 | > 100 | – | – | – | – | – |
| CCNC(=O)c1c(O)c2ccccc2[nH]c1=O | > 100 | > 100 | > 100 | – | > 100 | > 100 | > 100 | > 100 | > 100 | > 100 | – | – | – | – | – |
| CCOC(=O)CC1(c2cccc3ccccc23)OC(=O)c2ccccc21 (configuration not stated) | > 100 | > 100 | > 100 | – | 64.2 | > 100 | > 100 | – | 96.2 | > 100 | – | – | – | – | – |
| Cc1ccc(/C=N/Nc2ccc3ccccc3n2)s1 | > 100 | 36.5 | > 100 | > 100 | 86.9 | > 100 | 53.8 | > 100 | 41.2 | 59 | – | – | – | – | – |
| Clc1ccc(C(SCc2ccccc2)SCc2ccccc2)cc1 | > 10 | > 10 | > 10 | > 10 | > 10 | > 10 | > 10 | > 10 | > 10 | > 10 | – | – | – | – | – |
| Clc1ccc(C2Nc3ccccc3C3=NCCN32)cc1 (configuration not stated) | > 100 | 36.2 | 84.5 | 46.9 | 42.4 | 40.2 | 49.2 | 60.4 | 32.1 | 94.9 | – | – | – | – | – |
| O=C(N/N=C1/C(=O)c2c3ccccc3cc3cccc1c23)c1ccccc1 | > 100 | > 100 | > 91.9 | 42 | > 100 | > 31.6 | 85.5 | > 100 | 68.5 | > 100 | – | – | – | – | – |
| COc1ccc(CN=C(N)N)c2ccccc12 | > 100 | > 100 | 38.8 | > 100 | > 100 | > 100 | – | > 100 | 34.7 | > 100 | – | – | – | – | – |
| c1csc(C[N+]23CN4CN(CN(C4)C2)C3)c1 | 44.9 | – | > 100 | – | 58.7 | > 100 | 70.2 | – | 33.2 | > 100 | – | – | – | – | – |
| O=[N+]([O-])c1cc2c(cc1/C=N/n1c(CO)nc3ccccc31)OCO2 | > 100 | > 100 | > 100 | > 100 | > 100 | > 100 | – | > 100 | > 100 | > 100 | – | – | – | – | – |
| Cc1noc(NC2=CC(=O)C(=O)c3ccccc32)c1C | – | > 100 | > 100 | > 100 | 36 | 32.7 | – | 21.4 | 17.6 | > 100 | – | – | – | – | – |
| CCOC(=O)CNc1nc(=O)c2c(=O)oc(Cl)cc2o1 | 68.3 | 22.3 | 27.9 | 61.7 | – | 55.3 | 21.7 | 50.3 | 23.5 | > 100 | – | – | – | – | – |
| CC(=O)OC[C@@H](OC(C)=O)[C@H](OC(C)=O)[C@@H]1OC(C)(C)O[C@@H]1C1SCCCS1 | > 100 | > 100 | > 100 | > 100 | > 100 | > 100 | – | – | > 100 | > 100 | – | – | – | – | – |
| O=S(=O)(/N=C(\NO)Nc1ccc(Cl)cc1)c1cccc2nsnc12 | 71.9 | 61.4 | > 100 | > 100 | – | > 100 | > 100 | > 100 | 46.3 | > 100 | – | – | – | – | – |
| CC[C@H]1C=CCC[C@@]2(C[C@@H]3CC[C@H]4[C@@H](C(=O)OCCCCCCCCCCCCCCCC(=O)N(CCCN)C[C@@H](O)CCN)[C@@]5(CCC[C@@H](C)O5)NC(=[N+]34)N2)O1 | – | 3.35 | 3.45 | – | 2.53 | 2.91 | 3.13 | > 10 | 3.24 | – | – | – | – | – | – |
| Nc1nc(N)c2cc(NCc3ccc(Cl)c(Cl)c3)ccc2n1 | – | – | 3.12 | 3.28 | – | 2.59 | – | 16.6 | – | 2.78 | 1580 | 1720 | 1460 | 1290 | 2880 |
| COC(C)(C)C1(O)CCC(C)CC1=O (configuration not stated) | – | – | > 100 | – | > 100 | > 100 | > 100 | – | > 100 | > 100 | – | – | – | – | – |
| CCOC(=O)CC(=O)Nc1cccc2[nH]cnc12 | > 100 | – | > 100 | > 100 | > 100 | > 100 | > 100 | > 100 | > 100 | > 100 | – | – | – | – | – |
| CC(=O)N=C1N(/C=C2\C(=O)Oc3ccccc3C2=O)C(=O)/C(=C/c2ccc(NC(C)=O)cc2)N1C | > 100 | > 100 | > 100 | > 100 | > 100 | > 100 | > 100 | > 100 | > 100 | – | – | – | – | – | – |
| CC(C)=CCC/C(C)=C/CC/C(C)=C/CC/C(=C/CC/C(C)=C\CC/C(C)=C/CC/C(C)=C/CC/C(C)=C/Cc1cc(O)ccc1O)CO | > 30.7 | > 23.4 | 9.17 | – | > 100 | 4.16 | 10.9 | 19.4 | 6.37 | > 100 | – | – | – | – | – |
| O=CC12C3CCC1C2C(=O)C3 (configuration not stated) | > 100 | > 100 | > 100 | – | > 100 | > 100 | > 100 | > 100 | > 100 | > 100 | – | – | – | – | – |
| CC(C)C(/C=C/c1ccc(Cl)c(Cl)c1)=N\NC(=O)N/N=C(/C=C/c1ccc(Cl)c(Cl)c1)C(C)C | > 100 | > 100 | > 100 | – | > 100 | > 100 | > 100 | > 100 | > 100 | > 100 | – | – | – | – | – |
